In patent publication US20260306488A1, “FUNCTIONAL PROTECTIVE AGENT FOR ORGAN OR TISSUE” (TOHOKU UNIVERSITY, priority 2023, published 2026):

Legend:
[1] = test system: adenine-fed renal failure model mouse; experiment: Kidney tissue analysis by Masson's Trichrome Staining in adenine-fed renal failure model mouse (ratio of renal tubules); format: in vivo, mouse (male C57BL/6); details: adenine-fed cGP group (0.0025% cGP in diet) vs adenine-fed control group; FIG. 2A, Dunnett's test p<0.01; FIG. 2 legend says after 2-week feeding, method says tissue harvested at 3 weeks
Experimental: (§1) In order to confirm that a present compound has an effect of protecting kidney function and liver function in a renal failure model, 2,5-diketopiperazine (cGP; see Table 1) encompassed in the present compound was used for performing analysis in which the cGP is administered to a model mouse with chronic renal failure induced by feeding adenine (hereinafter referred to as the “adenine-fed renal failure model mouse”) to analyze the blood concentration of a uremic substance (creatinine), that is, an indicator of kidney function, and a ratio of renal tubules, as well as to analyze blood concentrations of three liver function markers (ALT, AST, and γGTP) and two lipids (total cholesterol and TG). The adenine-fed renal failure model mouse is a mouse that develops kidney damage because fed adenine crystallizes as insoluble 2,8-dihydroxyadenine in the renal tubules (Cozzolino, M. et al. Kidney Int. 64, 441-450 (2003), Tamagaki, K. et al. Nephrol. Dial. Transplant 21, 651-659 (2006)).
(§2) The analysis using an adenine-fed renal failure model mouse was performed according to the following procedures through:
(§3) [1] 8-Week old male C57BL/6 mice (purchased from Japan CLEA) were grouped into a normal diet group (n=6) to be fed a normal diet (CE-2, manufactured by Japan CLEA), and an adenine-fed group (n=12) to be fed the normal diet containing 0.2% adenine (manufactured by Wako).
[2] […]

[2] = test system: diabetes model mouse (db/db mouse); experiment: Plasma creatinine, phenyl sulfate and Ac6Lys in diabetes model mouse; format: in vivo, mouse (BKS-db/db)
Experimental: (§4) Next, in order to confirm that the present compound protects kidney function and liver function in a diabetes model, cGP was administered to a diabetes model mouse (db/db mouse) to analyze blood concentrations of two uremic substances (creatinine and phenyl sulfate), as well as a blood concentration of a factor leading to renal failure in a patient with type 1 diabetes (N6-acetyllysine [Ac6Lys]), and additionally, pathological tissues of liver and blood concentrations of three liver function markers (ALT, AST, and γGTP) and two lipids (total cholesterol and TG) were analyzed.
(§5) The analysis using a diabetes model mouse was performed according to the following procedures through:
[1] Wild-type mice (BKS-m+/m+ mice, purchased from Japan CLEA) having been fed a normal diet (CE-2, manufactured by Japan CLEA) were grouped into a wild-type normal diet group (n=5) to be fed the normal diet, and a wild-type cGP group (n=4) to be fed the normal diet containing cGP. Besides, diabetes model mice (BKS-db/db mice; purchased from Japan CLEAR) having been fed the normal diet were grouped into a diabetes model normal diet group (n=4) to be fed the normal diet, and a diabetes model cGP group (n=4) to be fed the normal diet containing cGP. Blood samples were harvested from the diabetes model cGP group, and plasma samples (referred to as the “plasma samples after 0-week feeding”) were prepared according to a usual method.
[2] After feeding the mice for 6 weeks, blood samples were harvested from the above four groups (the wild-type normal diet group, the wild-type cGP group, the diabetes model normal diet group, and the diabetes model cGP group), plasma samples (referred to as the “plasma samples after 6-week feeding”) were prepared according to a usual method, and then, liver tissues were harvested, fixed in 10% neutral-buffered formalin, and embedded in paraffin, and the resultant paraffin-embedded liver tissues were sliced to prepare liver tissue sections.
[3] The thus obtained “plasma samples after 0-week feeding” and “plasma samples after 6-week feeding” were used to measure blood concentrations of the three substances (creatinine, phenyl sulfate, and Ac6Lys) (see FIGS. 5 and 6), and blood concentrations of three liver function markers (ALT, AST, and γGTP) and two lipids (total cholesterol and TG) by mass spectrometry using LC-MS/MS (manufactured by Shimadzu Corporation). Besides, the liver tissue sections prepared as described above were used to perform analysis by Hematoxylin and Eosin (HE) staining method according to a usual method (see FIG. 4).

[3] = test system: adenine-fed renal failure model mouse; experiment: Plasma markers (creatinine, ALT, total cholesterol) in adenine-fed renal failure model mouse; format: in vivo, mouse (male C57BL/6); details: plasma samples after 2-week feeding
Experimental: as §1, §2, §3
[2] After feeding the mice for 6 weeks, the adenine-fed group was grouped into an adenine-fed control group (n=6) to be fed the normal diet, and an adenine-fed cGP group (n=6) to be fed the normal diet containing cGP. The normal diet containing cGP was prepared by mixing cGP (manufactured by Bachem) with the normal diet to a final concentration of 0.0025%.
[3] After feeding the mice for 2 weeks, blood samples were harvested from each of the three groups (the normal diet group, the adenine-fed control group, and the adenine-fed cGP group) to prepare plasma samples (referred to as “plasma samples after 2-week feeding”) according to a usual method.
[4] […]

[4] = test system: diabetes model mouse (db/db mouse); experiment: Plasma uremic substances (m1A and TMAO) in diabetes model mouse; format: in vivo, mouse (BKS-db/db); details: diabetes model cGP group (cGP in diet) vs diabetes model normal diet group, after 5-week feeding, Unpaired t-test p<0.01
Experimental: Next, in order to confirm that the present compound reduces chronic inflammation and resulting cellular damage, and prevents vascular complication in a diabetes model, cGP was administered to a diabetes model mouse (db/db mouse) to analyze blood concentrations of two uremic substances (1-methyladenosine [m1A] and trimethylamine-N-oxide [TMAO]).
as §5
[1] Diabetes model mice (BKS-db/db mice, purchased from Japan CLEA) having been fed a normal diet (CE-2, manufactured by Japan CLEA) were grouped into a diabetes model normal diet group (n=10) to be fed the normal diet, and a diabetes model cGP group (n=10) to be fed the normal diet containing cGP.
[2] After feeding the mice for 5 weeks, blood samples were harvested from the above two groups (the diabetes model normal diet group, and the diabetes model cGP group), and plasma samples were prepared according to a usual method.
[3] The thus prepared plasma samples were used to measure blood concentrations of two uremic substances (m1A and TMAO) by mass spectrometry using LC-MS/MS (manufactured by Shimadzu Corporation) (see FIG. 7).

[5] = test system: diabetes model mouse (db/db mouse); experiment: Liver tissue analysis by HE staining in diabetes model mouse; format: in vivo, mouse (BKS-db/db); details: diabetes model cGP group (cGP in diet) vs diabetes model normal diet group; after 6-week feeding; FIG. 4
Experimental: as §4, §5
[1] Wild-type mice (BKS-m+/m+ mice, purchased from Japan CLEA) having been fed a normal diet (CE-2, manufactured by Japan CLEA) were grouped into a wild-type normal diet group (n=5) to be fed the normal diet, and a wild-type cGP group (n=4) to be fed the normal diet containing cGP. Besides, diabetes model mice (BKS-db/db mice; purchased from Japan CLEAR) having been fed the normal diet were grouped into a diabetes model normal diet group (n=4) to be fed the normal diet, and a diabetes model cGP group (n=4) to be fed the normal diet containing cGP. […]

## O=C1NCC(=O)N2CCCC12 (centres unmarked) [cGP, cyclo-glycyl-proline]
[1]
  ratio of renal tubules in the renal cortex: significantly increased
[2]; diabetes model cGP group (cGP in diet) vs diabetes model normal diet group, plasma samples after 6-week feeding, FIG. 5, Dunnett's test
  creatinine concentration in plasma: significantly decreased
[2]; diabetes model cGP group (cGP in diet), week 6 after feeding compared to week 0, FIG. 6A, Paired t-test p<0.05
  blood concentration of creatinine, week 6 vs week 0: significantly lower
[2]; diabetes model cGP group (cGP in diet), week 6 after feeding compared to week 0, FIG. 6B, Paired t-test p<0.05
  blood concentration of phenyl sulfate, week 6 vs week 0: significantly lower
[2]; diabetes model cGP group (cGP in diet), week 6 after feeding compared to week 0, FIG. 6C, Paired t-test p<0.05
  blood concentration of N6-acetyllysine (Ac6Lys), week 6 vs week 0: significantly lower
[3]; adenine-fed cGP group (0.0025% cGP in diet) vs adenine-fed control group, FIG. 3A, Dunnett's test p<0.05
  ALT concentration in plasma: significantly decreased
[3]; adenine-fed cGP group (0.0025% cGP in diet) vs adenine-fed control group, FIG. 3B, Dunnett's test p<0.05
  total cholesterol concentration in plasma: significantly decreased
[3]; adenine-fed cGP group (normal diet containing 0.0025% cGP) vs adenine-fed control group, FIG. 1, Dunnett's test
  creatinine concentration in plasma: significantly decreased
[4]; FIG. 7A
  m1A (1-methyladenosine) concentration in plasma: significantly reduced
[4]; FIG. 7B
  TMAO (trimethylamine-N-oxide) concentration in plasma: significantly reduced
[5]
  fat droplets in the liver: reduced
